{"source": "patent US20250275996A1", "about": "“COMBINATION OF TUNICAMYCIN-TYPE ANTIBIOTIC WITH POLYMYXINS AND USES THEREOF” (priority 2024, published 2025)", "key": {"[1]": {"tested_on": "P. aeruginosa ATCC 2783", "test": "MIC by resazurin staining assay, P. aeruginosa", "assay_type": "cell-based, Pseudomonas aeruginosa", "experimental": "(§1) The […] growth inhibition (MIC) using natural tunicamycin (TUN), a tunicamycin derivative TunR2, polymyxin B, or a combination of polymyxin B with TUN or TunR2 were tested. Testing was performed using the resazurin staining assay. The resazurin staining assay uses the reduction by bacterial viable cells of the blue, non-fluorescent, and non-toxic dye, resazurin, to pink, fluorescent resorufin to assess the viability of biofilms. The Minimal Inhibitory Concentration (MIC) values where determined using standard microbiological methods, for example by spotting dilutions of the compounds or combinations on solid agar media plates after inoculating with bacteria, yeast, or buffer alone, followed by incubating for a defined period. This method results in clearing zones on agar plates.\n(§2) To determine the MIC for polymyxin B alone, plates inoculated with E. coli MG1655 (Gram-negative bacterium), P. aeruginosa ATCC 2783 (Gram-negative bacterium), B. subtilis MW10 (Gram-positive bacterium), S. cerevisiae (eukaryote) in TYG, or DMSO alone (Control) were spotted with a dilution gradient of polymyxin B, and incubated for 24 hours at 30° C.\n(§3) To determine the MIC for TUN or TunR2 in the presence or absence of polymyxin B, plates inoculated with E. coli MG1655, or P. aeruginosa ATCC 2783 in TYG, were spotted with a dilution gradient of Tun or TunR2 in the presence or absence of polymyxin B at sub-MIC concentration (MIC/2), or DMSO alone (Control). Images of two plates inoculated with E. coli are shown in FIG. 4A and FIG. 4B, and images of two plates inoculated with P. aeruginosa are shown in FIG. 4C and FIG. 4D.\nThe activity of Cefquinome alone, or in the presence of TunR2, polymyxin B, or polymyxin B and TunR2 on P. aeruginosa was tested. The MIC was determined using the resazurin staining assay described in Example 1.\nPlates inoculated with P. aeruginosa, or DMSO alone (Control) in TYG were spotted with a dilution gradient of Cefquinome in the presence of TunR2, polymyxin B, or polymyxin B and TunR2, and incubated for 24 hours at 37° C."}, "[2]": {"tested_on": "S. cerevisiae", "test": "MIC by resazurin staining assay, yeast", "assay_type": "cell-based, Saccharomyces cerevisiae", "conditions": "24 hours at 30° C., TYG", "experimental": "as §1, §2"}, "[3]": {"tested_on": "B. subtilis MW10", "test": "MIC by resazurin staining assay, B. subtilis", "assay_type": "cell-based, Bacillus subtilis", "conditions": "24 hours at 30° C., TYG", "experimental": "as §1, §2"}, "[4]": {"tested_on": "E. coli MG1655", "test": "MIC by resazurin staining assay, E. coli", "assay_type": "cell-based, Escherichia coli", "experimental": "as §1, §2, §3\n(§4) The activity of TUN or TunR2 in the presence or absence of polymyxin B on Serratia marcescens (a honey bee pathogen) or E. coli was tested. The MIC was determined using the resazurin staining assay described in Example 1.\nPlates inoculated with S. marcescens B-2544, E. coli, or DMSO alone (Control) in TYG were spotted with a dilution gradient of TUN or TunR2 in the presence or absence of a sub-MIC concentration of polymyxin B (half the MIC concentration), and incubated for 24 hours at 37° C. An image of a plate inoculated with S. marcescens is shown in FIG. 7A, and an image of a plate inoculated with E. coli is shown in FIG. 7B. […] The results obtained for E. coli compare well with the MICs of other antibiotics as taught by m. de Boer et al. (2015, “Minimum Inhibitory Concentrations of Selected Antimicrobials Against Escherichia Coli and Trueperella pyogenes of Bovine Uterine Origin,” J Dairy Sci. 98:4427-4438)."}, "[5]": {"tested_on": "S. marcescens B-2544", "test": "MIC by resazurin staining assay, S. marcescens", "assay_type": "cell-based, Serratia marcescens", "conditions": "24 hours at 37° C.", "experimental": "as §1, §4\nPlates inoculated with S. marcescens B-2544, E. coli, or DMSO alone (Control) in TYG were spotted with a dilution gradient of TUN or TunR2 in the presence or absence of a sub-MIC concentration of polymyxin B (half the MIC concentration), and incubated for 24 hours at 37° C. […]"}, "[6]": {"conditions": "alone, dilution series, 24 hours at 37° C."}}}
{"compound": "CO/N=C(\\C(=O)N[C@@H]1C(=O)N2C(C(=O)[O-])=C(C[n+]3cccc4c3CCCC4)CS[C@H]12)c1csc(N)n1", "note": "[Cefquinome]", "values": [{"measurement": "MIC for Cefquinome (FIG. 8 legend)", "setting": "[1]; P. aeruginosa in TYG, Cefquinome alone, 48 hours at 37° C.", "result": 10.0, "unit": "µg/mL"}, {"measurement": "MIC for Cefquinome alone", "setting": "[1]; P. aeruginosa, 24 hours at 37° C.", "result": 10, "unit": "µg/mL"}, {"measurement": "MIC for Cefquinome in the presence of polymyxin B and TunR2", "setting": "[1]; P. aeruginosa, with 2.5 μg/mL polymyxin B and 6.25 μg/mL TunR2, 24 hours at 37° C.", "result": 1.25, "unit": "µg/mL"}, {"measurement": "MIC for Cefquinome in the presence of polymyxin B", "setting": "[1]; P. aeruginosa, with 2.5 μg/mL polymyxin B, 24 hours at 37° C.", "result": 5, "unit": "µg/mL"}, {"measurement": "MIC for Cefquinome in the presence of TunR2", "setting": "[1]; P. aeruginosa, with 6.25 μg/mL TunR2, 24 hours at 37° C.", "result": 10, "unit": "µg/mL"}]}
{"compound": "polymyxin B", "values": [{"measurement": "effect on yeast (MIC for polymyxin B alone)", "setting": "[2]", "result": "not detectable"}, {"measurement": "MIC of polymyxin", "setting": "[1]; Pseudomonas, polymyxin alone", "result": 5.0, "unit": "µg/mL"}, {"measurement": "MIC for polymyxin B alone", "setting": "[3]", "result": 2.5, "unit": "µg/mL"}, {"measurement": "MIC of polymyxin", "setting": "[4]; E. coli, polymyxin alone", "result": 0.625, "unit": "µg/mL"}]}
{"compound": "tunicamycin", "values": [{"measurement": "MIC in the presence of polymyxin B", "setting": "[5]; S. marcescens, sub-MIC polymyxin B (half the MIC)", "result": 5.0, "unit": "µg/mL"}, {"measurement": "effect on S. marcescens when used alone", "setting": "[5]; absence of polymyxin B, any of the concentrations tested", "result": "neither TUN nor TunR2 had a detectable effect"}, {"measurement": "effect on P. aeruginosa in the absence of polymyxin B", "setting": "[1]; [6]", "result": "neither Tun nor TunR2 had noticeable effect"}, {"measurement": "growth of P. aeruginosa in the presence of polymyxin B", "setting": "[1]; with polymyxin B at MIC/2 (2.5 μg/mL), 24 hours at 37° C.", "result": "no E. coli or P. aeruginosa grew"}, {"measurement": "MIC in the presence of polymyxin B", "setting": "[4]; Example 2, E. coli, sub-MIC polymyxin B (half the MIC), 24 hours at 37° C.", "result": 0.313, "unit": "µg/mL"}, {"measurement": "effect on E. coli when used alone", "setting": "[4]; Example 2, absence of polymyxin B, 24 hours at 37° C., any of the concentrations tested", "result": "neither TUN nor TunR2 had a detectable effect"}, {"measurement": "effect on E. coli in the absence of polymyxin B", "setting": "[4]; [6]", "result": "neither Tun nor TunR2 had noticeable effect"}, {"measurement": "growth of E. coli in the presence of polymyxin B", "setting": "[4]; with polymyxin B at MIC/2 (0.313 μg/mL), 24 hours at 37° C.", "result": "no E. coli or P. aeruginosa grew"}]}
